Assay results taken from patent US8513228B2, “Crystalline form of antiprogestin CDB-4124” (Richter Gedeon Nyrt., priority 2009, dated 2013).

How the values were obtained:
[1] = Water adsorption properties by dynamic vapour sorption (DVS); assay type: physicochemical
Experimental: From the examination of water adsorption properties important conclusions can be made about the physical and chemical stability of a compound. Amorphous compounds can adsorb more water from the air. This property is deliberately disadvantageous during the preparation process of a pharmaceutical composition, since the real amount of the active ingredient can't be measured because of the adsorbed water.
Water adsorption properties of the compounds were measured by dynamic vapour sorption technique (DVS). […]

[2] = Fast Stability Test (solid stored on a plate at 40° C. in air, impurity by HPLC); assay type: physicochemical; conditions: for N-demethyl-derivative of CDB-4124: largest degradation product; for N-demethyl-derivative of CDB-4124 / Impurity: HPLC; for Impurity: stored on a plate at 40° C. in the presence of air
Experimental: Amorphous and crystalline forms were stored on a plate at 40° C. in the presence of air for 10 days. Impurity was measured at different times using HPLC equipment. […]

SMILES	water adsorbed (max.) ([1]; DVS, 25° C., 0%-90% relative humidity, as humidity was increased)	mass change as the degree of humidity was increased ([1]; DVS, 25° C., 0%-90% relative humidity)	physical stability on change in relative humidity ([1]; room-temperature, independently of a change in relative humidity)	stability (purity examination) ([2]; 40° C., air, 10 days, compared with amorphous form)	N-demethyl-derivative of CDB-4124 ([2]; Day 0, 40° C., air)	Impurity ([2]; Day 0)	N-demethyl-derivative of CDB-4124 ([2]; Day 1, 40° C., air)	Impurity ([2]; Day 1)	N-demethyl-derivative of CDB-4124 ([2]; Day 2, 40° C., air)	Impurity ([2]; Day 2)	Impurity ([2]; Day 6)	N-demethyl-derivative of CDB-4124 ([2]; Day 10, 40° C., air)	Impurity ([2]; Day 10)
COCC(=O)[C@@]1(OC(C)=O)CC[C@H]2[C@@H]3CCC4=CC(=O)CCC4=C3[C@@H](c3ccc(N(C)C)cc3)C[C@@]21C [Amorphous form, 17α-acetoxy-21-methoxy-11β-[4-N,N-dimethylaminophenyl]-19-norpregna-4,9-diene-3,20-dione, reference compound]	2 m/m %												
COCC(=O)[C@@]1(OC(C)=O)CC[C@H]2[C@@H]3CCC4=CC(=O)CCC4=C3[C@@H](c3ccc(N(C)C)cc3)C[C@@]21C [Form A, 17α-acetoxy-21-methoxy-11β-[4-N,N-dimethylaminophenyl]-19-norpregna-4,9-diene-3,20-dione]		barely changed	stable anhydrate	much better than that of the amorphous form	0.18%	0.33%	0.18%	0.33%	0.18%	0.35%	0.43%	0.23%	0.48%
